Data: patent US20050277639A1, “2-Pyridinyl[7-(substituted-pyridin-4-yl)pyrazolo[1,5-a]pyrimidin-3-yl]methanones” (priority 2004, published 2005)

Target: benzodiazepine receptor (Rattus norvegicus, UniProt P18508+P62813)
Experiment: Competition radioligand binding assay with [3H]Ro 15-1788 in washed cerebellar membranes
Conditions: [3H]Ro 15-1788 binding; comparison with parent compound ocinaplon

Q: `O=C(c1ccccn1)c1cnn2c(-c3cc(Br)nc(Br)c3)ccnc12` [2,6-dibromo, 2-Pyridinyl[7-(2,6-dibromopyridin-4-yl)pyrazolo[1,5-a]pyrimidin-3-yl]methanone] was tested. Which “affinity for the benzodiazepine receptor compared with ocinaplon” value did it give?
A: substantially lower affinity
